{"source": "the OligoGym collection", "note": "Oligonucleotides are given in HELM: sugar(base)linkage, 5' to 3'; d 2'-deoxyribose, r ribose, m 2'-O-methylribose, p phosphate. ss, as = sense and antisense strand; further: test concentration or dose not given here", "data": [{"target": "Mmp7 (rat)", "assay": "reporter assay of Huesken 2005", "conditions": "siRNA", "units": {"normalised inhibition (eCFP-eYFP dual reporter)": "%"}, "values": [{"substance": "RNA1{r(A)p.r(G)p.r(U)p.r(U)p.r(C)p.r(U)p.r(G)p.r(U)p.r(G)p.r(A)p.r(U)p.r(G)p.r(U)p.r(A)p.r(C)p.r(C)p.r(C)p.r(U)p.r(A)p.d(T)p.d(T)}|RNA2{r(U)p.r(A)p.r(G)p.r(G)p.r(G)p.r(U)p.r(A)p.r(C)p.r(A)p.r(U)p.r(C)p.r(A)p.r(C)p.r(A)p.r(G)p.r(A)p.r(A)p.r(C)p.r(U)p.d(G)p.d(G)}$$$RNA1{StrandType:ss}|RNA2{StrandType:as}$", "normalised inhibition (eCFP-eYFP dual reporter)": 116}, {"substance": "RNA1{r(A)p.r(C)p.r(A)p.r(G)p.r(U)p.r(C)p.r(C)p.r(U)p.r(A)p.r(A)p.r(G)p.r(U)p.r(G)p.r(G)p.r(C)p.r(A)p.r(U)p.r(U)p.r(C)p.d(T)p.d(T)}|RNA2{r(G)p.r(A)p.r(A)p.r(U)p.r(G)p.r(C)p.r(C)p.r(A)p.r(C)p.r(U)p.r(U)p.r(A)p.r(G)p.r(G)p.r(A)p.r(C)p.r(U)p.r(G)p.r(U)p.d(T)p.d(T)}$$$RNA1{StrandType:ss}|RNA2{StrandType:as}$", "normalised inhibition (eCFP-eYFP dual reporter)": 65.7}, {"substance": "RNA1{r(A)p.r(G)p.r(A)p.r(A)p.r(U)p.r(U)p.r(C)p.r(U)p.r(C)p.r(A)p.r(C)p.r(U)p.r(A)p.r(A)p.r(U)p.r(G)p.r(C)p.r(C)p.r(A)p.d(T)p.d(T)}|RNA2{r(U)p.r(G)p.r(G)p.r(C)p.r(A)p.r(U)p.r(U)p.r(A)p.r(G)p.r(U)p.r(G)p.r(A)p.r(G)p.r(A)p.r(A)p.r(U)p.r(U)p.r(C)p.r(U)p.d(G)p.d(C)}$$$RNA1{StrandType:ss}|RNA2{StrandType:as}$", "normalised inhibition (eCFP-eYFP dual reporter)": 107}, {"substance": "RNA1{r(G)p.r(U)p.r(C)p.r(C)p.r(U)p.r(A)p.r(A)p.r(G)p.r(U)p.r(G)p.r(G)p.r(C)p.r(A)p.r(U)p.r(U)p.r(C)p.r(C)p.r(A)p.r(G)p.d(T)p.d(T)}|RNA2{r(C)p.r(U)p.r(G)p.r(G)p.r(A)p.r(A)p.r(U)p.r(G)p.r(C)p.r(C)p.r(A)p.r(C)p.r(U)p.r(U)p.r(A)p.r(G)p.r(G)p.r(A)p.r(C)p.d(T)p.d(G)}$$$RNA1{StrandType:ss}|RNA2{StrandType:as}$", "normalised inhibition (eCFP-eYFP dual reporter)": 110}, {"substance": "RNA1{r(G)p.r(G)p.r(C)p.r(C)p.r(A)p.r(C)p.r(U)p.r(C)p.r(U)p.r(C)p.r(U)p.r(G)p.r(G)p.r(G)p.r(U)p.r(C)p.r(U)p.r(G)p.r(G)p.d(T)p.d(T)}|RNA2{r(C)p.r(C)p.r(A)p.r(G)p.r(A)p.r(C)p.r(C)p.r(C)p.r(A)p.r(G)p.r(A)p.r(G)p.r(A)p.r(G)p.r(U)p.r(G)p.r(G)p.r(C)p.r(C)p.d(A)p.d(A)}$$$RNA1{StrandType:ss}|RNA2{StrandType:as}$", "normalised inhibition (eCFP-eYFP dual reporter)": 41.4}, {"substance": "RNA1{r(G)p.r(C)p.r(U)p.r(C)p.r(A)p.r(C)p.r(U)p.r(U)p.r(U)p.r(G)p.r(A)p.r(C)p.r(A)p.r(A)p.r(G)p.r(G)p.r(A)p.r(U)p.r(G)p.d(T)p.d(T)}|RNA2{r(C)p.r(A)p.r(U)p.r(C)p.r(C)p.r(U)p.r(U)p.r(G)p.r(U)p.r(C)p.r(A)p.r(A)p.r(A)p.r(G)p.r(U)p.r(G)p.r(A)p.r(G)p.r(C)p.d(A)p.d(T)}$$$RNA1{StrandType:ss}|RNA2{StrandType:as}$", "normalised inhibition (eCFP-eYFP dual reporter)": 102}, {"substance": "RNA1{r(G)p.r(A)p.r(A)p.r(U)p.r(U)p.r(A)p.r(U)p.r(C)p.r(U)p.r(U)p.r(A)p.r(G)p.r(G)p.r(A)p.r(A)p.r(A)p.r(U)p.r(U)p.r(U)p.d(T)p.d(T)}|RNA2{r(A)p.r(A)p.r(A)p.r(U)p.r(U)p.r(U)p.r(C)p.r(C)p.r(U)p.r(A)p.r(A)p.r(G)p.r(A)p.r(U)p.r(A)p.r(A)p.r(U)p.r(U)p.r(C)p.d(T)p.d(G)}$$$RNA1{StrandType:ss}|RNA2{StrandType:as}$", "normalised inhibition (eCFP-eYFP dual reporter)": 116}, {"substance": "RNA1{r(C)p.r(U)p.r(U)p.r(C)p.r(C)p.r(C)p.r(A)p.r(U)p.r(U)p.r(U)p.r(G)p.r(A)p.r(U)p.r(G)p.r(G)p.r(G)p.r(C)p.r(C)p.r(A)p.d(T)p.d(T)}|RNA2{r(U)p.r(G)p.r(G)p.r(C)p.r(C)p.r(C)p.r(A)p.r(U)p.r(C)p.r(A)p.r(A)p.r(A)p.r(U)p.r(G)p.r(G)p.r(G)p.r(A)p.r(A)p.r(G)p.d(T)p.d(T)}$$$RNA1{StrandType:ss}|RNA2{StrandType:as}$", "normalised inhibition (eCFP-eYFP dual reporter)": 85}, {"substance": "RNA1{r(U)p.r(U)p.r(C)p.r(C)p.r(U)p.r(G)p.r(U)p.r(U)p.r(U)p.r(G)p.r(U)p.r(U)p.r(G)p.r(C)p.r(C)p.r(A)p.r(C)p.r(U)p.r(C)p.d(T)p.d(T)}|RNA2{r(G)p.r(A)p.r(G)p.r(U)p.r(G)p.r(G)p.r(C)p.r(A)p.r(A)p.r(C)p.r(A)p.r(A)p.r(A)p.r(C)p.r(A)p.r(G)p.r(G)p.r(A)p.r(A)p.d(G)p.d(T)}$$$RNA1{StrandType:ss}|RNA2{StrandType:as}$", "normalised inhibition (eCFP-eYFP dual reporter)": 37.6}, {"substance": "RNA1{r(C)p.r(A)p.r(G)p.r(A)p.r(C)p.r(A)p.r(U)p.r(C)p.r(A)p.r(U)p.r(A)p.r(A)p.r(U)p.r(U)p.r(G)p.r(G)p.r(C)p.r(U)p.r(U)p.d(T)p.d(T)}|RNA2{r(A)p.r(A)p.r(G)p.r(C)p.r(C)p.r(A)p.r(A)p.r(U)p.r(U)p.r(A)p.r(U)p.r(G)p.r(A)p.r(U)p.r(G)p.r(U)p.r(C)p.r(U)p.r(G)p.d(C)p.d(A)}$$$RNA1{StrandType:ss}|RNA2{StrandType:as}$", "normalised inhibition (eCFP-eYFP dual reporter)": 103}, {"substance": "RNA1{r(G)p.r(C)p.r(A)p.r(A)p.r(G)p.r(G)p.r(G)p.r(G)p.r(A)p.r(G)p.r(A)p.r(U)p.r(C)p.r(A)p.r(C)p.r(G)p.r(G)p.r(A)p.r(G)p.d(T)p.d(T)}|RNA2{r(C)p.r(U)p.r(C)p.r(C)p.r(G)p.r(U)p.r(G)p.r(A)p.r(U)p.r(C)p.r(U)p.r(C)p.r(C)p.r(C)p.r(C)p.r(U)p.r(U)p.r(G)p.r(C)p.d(G)p.d(A)}$$$RNA1{StrandType:ss}|RNA2{StrandType:as}$", "normalised inhibition (eCFP-eYFP dual reporter)": 90.5}, {"substance": "RNA1{r(G)p.r(A)p.r(A)p.r(A)p.r(C)p.r(A)p.r(C)p.r(U)p.r(C)p.r(U)p.r(A)p.r(G)p.r(G)p.r(C)p.r(C)p.r(A)p.r(U)p.r(G)p.r(C)p.d(T)p.d(T)}|RNA2{r(G)p.r(C)p.r(A)p.r(U)p.r(G)p.r(G)p.r(C)p.r(C)p.r(U)p.r(A)p.r(G)p.r(A)p.r(G)p.r(U)p.r(G)p.r(U)p.r(U)p.r(U)p.r(C)p.d(C)p.d(T)}$$$RNA1{StrandType:ss}|RNA2{StrandType:as}$", "normalised inhibition (eCFP-eYFP dual reporter)": 53.7}, {"substance": "RNA1{r(C)p.r(C)p.r(C)p.r(A)p.r(G)p.r(G)p.r(A)p.r(A)p.r(G)p.r(C)p.r(C)p.r(G)p.r(G)p.r(A)p.r(G)p.r(A)p.r(A)p.r(G)p.r(U)p.d(T)p.d(T)}|RNA2{r(A)p.r(C)p.r(U)p.r(U)p.r(C)p.r(U)p.r(C)p.r(C)p.r(G)p.r(G)p.r(C)p.r(U)p.r(U)p.r(C)p.r(C)p.r(U)p.r(G)p.r(G)p.r(G)p.d(A)p.d(C)}$$$RNA1{StrandType:ss}|RNA2{StrandType:as}$", "normalised inhibition (eCFP-eYFP dual reporter)": 64.2}, {"substance": "RNA1{r(C)p.r(G)p.r(A)p.r(C)p.r(U)p.r(C)p.r(U)p.r(A)p.r(A)p.r(A)p.r(A)p.r(C)p.r(A)p.r(A)p.r(A)p.r(G)p.r(A)p.r(A)p.r(G)p.d(T)p.d(T)}|RNA2{r(C)p.r(U)p.r(U)p.r(C)p.r(U)p.r(U)p.r(U)p.r(G)p.r(U)p.r(U)p.r(U)p.r(U)p.r(A)p.r(G)p.r(A)p.r(G)p.r(U)p.r(C)p.r(G)p.d(T)p.d(G)}$$$RNA1{StrandType:ss}|RNA2{StrandType:as}$", "normalised inhibition (eCFP-eYFP dual reporter)": 113}]}]}
